Literature values, collected in patent US20150297310A1, “METHODS FOR SELECTING A TREATMENT FOR CANCER” (priority 2014, published 2015).

Test system: AB1-HA tumor
Conditions: AB1-HA tumor model, CTX treatment at Day 9

O=P1(N(CCCl)CCCl)NCCCO1 (stereo not shown) [CTX, Cyclophosphamide]
cure rate: 75%
